From paper PMC3961306, “Comparison of the Cancer Gene Targeting and Biochemical Selectivities of All Targeted Kinase Inhibitors Approved for Clinical Use” (PLoS ONE, 2014) come the findings set out here.

What all share (assay): Kinase profiling in a biochemical assay panel (mobility shift assays and ELISA), %-inhibition at 1 μM; selectivity entropy
On the technique in general: In an ELISA, binding on a coated surface is turned into a signal by an enzyme label.

Test [1] addresses panel of more than 300 wild-type and mutant kinases (313 kinase panel) (Homo sapiens, UniProt P51451). Conditions: kinase BLK; 1 μM compound.
Test [2] concerns the target panel of more than 300 wild-type and mutant kinases (313 kinase panel) (Homo sapiens, UniProt Q13555).
Test [3] addresses panel of more than 300 wild-type and mutant kinases (313 kinase panel) (Homo sapiens, UniProt O14578). Conditions: kinase CRIK; compound at 1 μM.
In test [4] the target is T1, panel of more than 300 wild-type and mutant kinases (313 kinase panel) (Homo sapiens, UniProt Q96KB5).
T1 sequence (Q96KB5 1-322): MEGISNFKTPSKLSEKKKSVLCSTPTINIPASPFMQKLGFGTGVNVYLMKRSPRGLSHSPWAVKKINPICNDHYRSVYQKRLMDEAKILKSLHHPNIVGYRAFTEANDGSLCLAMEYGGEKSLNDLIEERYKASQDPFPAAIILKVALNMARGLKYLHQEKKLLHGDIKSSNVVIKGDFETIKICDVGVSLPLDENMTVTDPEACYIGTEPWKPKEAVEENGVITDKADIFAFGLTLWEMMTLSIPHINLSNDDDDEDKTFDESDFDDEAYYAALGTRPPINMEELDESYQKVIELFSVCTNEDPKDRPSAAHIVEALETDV
Conditions: kinase PBK; 1 μM.

Test [5] addresses panel of more than 300 wild-type and mutant kinases (313 kinase panel) (Homo sapiens, UniProt Q15375). To be noted: kinase EPHA7; compound at 1 μM.
Test [6] concerns the target T2, panel of more than 300 wild-type and mutant kinases (313 kinase panel) (Homo sapiens, UniProt Q8IW41).
T2 sequence (Q8IW41 1-473): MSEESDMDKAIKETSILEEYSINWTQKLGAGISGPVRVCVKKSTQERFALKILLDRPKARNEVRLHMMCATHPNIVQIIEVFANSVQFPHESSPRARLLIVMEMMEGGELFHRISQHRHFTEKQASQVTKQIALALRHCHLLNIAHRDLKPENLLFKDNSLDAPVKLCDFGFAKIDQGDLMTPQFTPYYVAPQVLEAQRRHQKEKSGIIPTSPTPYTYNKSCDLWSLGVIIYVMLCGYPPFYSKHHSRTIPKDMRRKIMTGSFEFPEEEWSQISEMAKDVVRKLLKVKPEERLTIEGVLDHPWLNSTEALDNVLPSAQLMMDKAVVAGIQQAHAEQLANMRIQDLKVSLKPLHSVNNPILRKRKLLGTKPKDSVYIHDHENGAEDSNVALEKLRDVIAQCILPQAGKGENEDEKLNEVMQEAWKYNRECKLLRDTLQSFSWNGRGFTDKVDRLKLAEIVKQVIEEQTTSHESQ

Test [7] concerns the target T3, panel of more than 300 wild-type and mutant kinases (313 kinase panel) (Homo sapiens, UniProt P54760).
T3 sequence (P54760 16-987): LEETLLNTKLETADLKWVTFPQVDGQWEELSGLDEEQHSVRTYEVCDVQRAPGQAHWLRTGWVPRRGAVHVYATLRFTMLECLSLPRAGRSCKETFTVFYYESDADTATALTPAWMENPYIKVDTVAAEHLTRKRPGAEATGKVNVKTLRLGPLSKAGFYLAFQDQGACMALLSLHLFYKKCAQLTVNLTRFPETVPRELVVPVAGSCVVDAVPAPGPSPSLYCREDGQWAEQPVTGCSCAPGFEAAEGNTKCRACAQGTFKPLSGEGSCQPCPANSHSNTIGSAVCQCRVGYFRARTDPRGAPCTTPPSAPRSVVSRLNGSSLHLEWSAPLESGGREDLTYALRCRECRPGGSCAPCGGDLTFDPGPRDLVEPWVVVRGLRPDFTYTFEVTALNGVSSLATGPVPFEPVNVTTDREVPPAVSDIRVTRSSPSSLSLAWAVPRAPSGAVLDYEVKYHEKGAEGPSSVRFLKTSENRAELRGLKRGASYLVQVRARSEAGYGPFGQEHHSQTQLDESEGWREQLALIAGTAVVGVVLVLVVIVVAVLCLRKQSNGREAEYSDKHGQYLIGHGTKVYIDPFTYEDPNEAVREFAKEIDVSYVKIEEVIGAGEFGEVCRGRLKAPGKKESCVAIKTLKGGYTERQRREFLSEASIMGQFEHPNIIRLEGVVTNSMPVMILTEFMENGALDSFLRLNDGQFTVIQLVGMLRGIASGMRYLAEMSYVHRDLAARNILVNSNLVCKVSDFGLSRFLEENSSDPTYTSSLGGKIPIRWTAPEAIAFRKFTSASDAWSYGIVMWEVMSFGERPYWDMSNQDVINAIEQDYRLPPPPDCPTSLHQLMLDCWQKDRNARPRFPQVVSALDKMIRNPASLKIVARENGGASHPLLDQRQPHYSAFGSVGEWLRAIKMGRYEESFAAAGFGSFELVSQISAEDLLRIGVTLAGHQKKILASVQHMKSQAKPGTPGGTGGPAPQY

Test [8] concerns the target panel of more than 300 wild-type and mutant kinases (313 kinase panel) (Homo sapiens, UniProt Q16620).
For test [9], the target named is panel of more than 300 wild-type and mutant kinases (313 kinase panel) (Homo sapiens, UniProt Q16644). To be noted: kinase MAPKAPK3; compound at 1 μM.
panel of more than 300 wild-type and mutant kinases (313 kinase panel) (Homo sapiens, UniProt Q16644), sequence (Q16644 whole entry, change not shown): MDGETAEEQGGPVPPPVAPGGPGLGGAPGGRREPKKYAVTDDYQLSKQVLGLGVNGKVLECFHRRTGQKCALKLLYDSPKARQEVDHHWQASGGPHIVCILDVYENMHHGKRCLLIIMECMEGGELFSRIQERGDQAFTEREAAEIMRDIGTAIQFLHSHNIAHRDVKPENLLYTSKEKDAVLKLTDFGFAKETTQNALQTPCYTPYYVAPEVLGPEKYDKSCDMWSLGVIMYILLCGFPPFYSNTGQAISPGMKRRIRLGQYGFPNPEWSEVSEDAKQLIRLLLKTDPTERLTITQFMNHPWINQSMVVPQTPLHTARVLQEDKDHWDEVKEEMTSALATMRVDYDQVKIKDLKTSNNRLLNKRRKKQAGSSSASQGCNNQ
Setting [10] is: kinase MAPKAPK5, compound at 1 μM.

panel of more than 300 wild-type and mutant kinases (313 kinase panel) (Homo sapiens, UniProt O14578), sequence (O14578 whole entry, change not shown): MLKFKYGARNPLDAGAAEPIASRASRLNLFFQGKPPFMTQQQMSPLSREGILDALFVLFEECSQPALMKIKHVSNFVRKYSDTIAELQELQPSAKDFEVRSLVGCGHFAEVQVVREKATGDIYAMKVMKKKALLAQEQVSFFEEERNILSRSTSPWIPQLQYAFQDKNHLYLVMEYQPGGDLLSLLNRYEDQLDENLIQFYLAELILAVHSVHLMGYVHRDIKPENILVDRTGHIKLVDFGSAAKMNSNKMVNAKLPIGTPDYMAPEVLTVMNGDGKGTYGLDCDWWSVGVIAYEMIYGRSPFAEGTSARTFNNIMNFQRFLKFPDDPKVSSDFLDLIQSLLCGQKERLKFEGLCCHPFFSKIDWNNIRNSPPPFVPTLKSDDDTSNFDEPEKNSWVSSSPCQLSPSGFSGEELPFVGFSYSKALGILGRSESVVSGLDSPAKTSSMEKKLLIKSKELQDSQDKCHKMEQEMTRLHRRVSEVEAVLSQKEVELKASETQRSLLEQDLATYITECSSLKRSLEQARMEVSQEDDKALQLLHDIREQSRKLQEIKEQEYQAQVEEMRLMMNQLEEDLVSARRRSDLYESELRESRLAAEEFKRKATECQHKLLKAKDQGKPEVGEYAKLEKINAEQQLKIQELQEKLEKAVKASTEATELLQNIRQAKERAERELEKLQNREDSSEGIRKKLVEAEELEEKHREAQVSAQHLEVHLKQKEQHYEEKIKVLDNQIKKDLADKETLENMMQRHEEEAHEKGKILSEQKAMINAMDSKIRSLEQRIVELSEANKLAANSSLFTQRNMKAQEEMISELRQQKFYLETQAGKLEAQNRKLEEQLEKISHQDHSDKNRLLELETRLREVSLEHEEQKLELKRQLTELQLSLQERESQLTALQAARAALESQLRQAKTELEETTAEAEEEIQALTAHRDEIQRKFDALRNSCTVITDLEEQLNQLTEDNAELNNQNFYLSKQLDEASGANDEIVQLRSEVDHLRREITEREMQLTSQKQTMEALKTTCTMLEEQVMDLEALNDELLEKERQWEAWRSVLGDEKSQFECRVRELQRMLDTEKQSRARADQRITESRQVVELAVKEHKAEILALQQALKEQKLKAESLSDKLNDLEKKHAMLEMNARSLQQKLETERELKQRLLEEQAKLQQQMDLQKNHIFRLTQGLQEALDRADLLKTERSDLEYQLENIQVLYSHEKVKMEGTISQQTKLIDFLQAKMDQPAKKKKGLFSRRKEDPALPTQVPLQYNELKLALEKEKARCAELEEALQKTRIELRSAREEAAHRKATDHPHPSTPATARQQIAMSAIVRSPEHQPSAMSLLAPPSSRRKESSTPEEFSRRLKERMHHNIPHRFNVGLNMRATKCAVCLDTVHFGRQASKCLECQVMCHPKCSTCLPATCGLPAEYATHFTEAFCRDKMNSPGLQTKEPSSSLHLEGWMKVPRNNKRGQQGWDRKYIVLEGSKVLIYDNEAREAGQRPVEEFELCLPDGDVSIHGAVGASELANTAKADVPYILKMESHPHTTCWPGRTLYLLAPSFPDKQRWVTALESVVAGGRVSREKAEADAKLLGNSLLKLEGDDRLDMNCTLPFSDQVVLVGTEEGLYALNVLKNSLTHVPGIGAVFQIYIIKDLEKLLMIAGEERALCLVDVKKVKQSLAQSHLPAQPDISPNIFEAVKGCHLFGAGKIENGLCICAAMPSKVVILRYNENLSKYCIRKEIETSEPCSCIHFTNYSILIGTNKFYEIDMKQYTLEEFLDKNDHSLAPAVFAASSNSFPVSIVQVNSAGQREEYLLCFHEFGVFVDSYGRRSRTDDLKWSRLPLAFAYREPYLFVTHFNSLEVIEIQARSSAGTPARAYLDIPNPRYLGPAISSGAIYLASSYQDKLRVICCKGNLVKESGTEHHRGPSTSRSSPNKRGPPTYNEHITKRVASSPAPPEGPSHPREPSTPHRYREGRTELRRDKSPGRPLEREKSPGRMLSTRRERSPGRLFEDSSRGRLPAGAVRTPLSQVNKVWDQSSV
panel of more than 300 wild-type and mutant kinases (313 kinase panel) (Homo sapiens, UniProt Q15375), sequence (Q15375 28-998, change not shown): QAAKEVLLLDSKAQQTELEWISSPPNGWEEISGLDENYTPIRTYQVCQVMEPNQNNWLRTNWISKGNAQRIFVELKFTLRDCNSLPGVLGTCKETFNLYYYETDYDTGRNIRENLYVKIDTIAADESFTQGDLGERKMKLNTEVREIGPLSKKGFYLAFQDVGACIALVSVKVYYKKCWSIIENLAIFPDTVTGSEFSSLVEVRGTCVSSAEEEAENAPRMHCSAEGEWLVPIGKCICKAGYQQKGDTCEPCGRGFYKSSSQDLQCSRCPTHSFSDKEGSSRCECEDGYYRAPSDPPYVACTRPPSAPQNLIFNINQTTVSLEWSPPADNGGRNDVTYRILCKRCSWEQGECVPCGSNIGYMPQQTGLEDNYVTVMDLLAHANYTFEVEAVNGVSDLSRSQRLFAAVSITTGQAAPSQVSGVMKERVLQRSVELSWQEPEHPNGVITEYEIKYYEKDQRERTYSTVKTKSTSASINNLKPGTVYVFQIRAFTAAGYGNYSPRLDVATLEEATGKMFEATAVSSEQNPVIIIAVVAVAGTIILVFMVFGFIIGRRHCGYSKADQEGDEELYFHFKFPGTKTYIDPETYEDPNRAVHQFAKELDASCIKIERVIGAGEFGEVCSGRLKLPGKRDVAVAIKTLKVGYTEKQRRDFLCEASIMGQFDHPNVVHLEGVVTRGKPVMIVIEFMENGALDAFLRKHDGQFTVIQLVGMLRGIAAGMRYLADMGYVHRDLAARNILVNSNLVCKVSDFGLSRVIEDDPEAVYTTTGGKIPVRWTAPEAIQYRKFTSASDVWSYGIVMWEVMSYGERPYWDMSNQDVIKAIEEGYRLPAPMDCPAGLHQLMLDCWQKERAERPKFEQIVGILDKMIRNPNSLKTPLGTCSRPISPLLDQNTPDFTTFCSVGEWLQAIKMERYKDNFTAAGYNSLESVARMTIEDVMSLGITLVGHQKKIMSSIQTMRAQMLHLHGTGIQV
panel of more than 300 wild-type and mutant kinases (313 kinase panel) (Homo sapiens, UniProt P51451), sequence (P51451 whole entry, change not shown): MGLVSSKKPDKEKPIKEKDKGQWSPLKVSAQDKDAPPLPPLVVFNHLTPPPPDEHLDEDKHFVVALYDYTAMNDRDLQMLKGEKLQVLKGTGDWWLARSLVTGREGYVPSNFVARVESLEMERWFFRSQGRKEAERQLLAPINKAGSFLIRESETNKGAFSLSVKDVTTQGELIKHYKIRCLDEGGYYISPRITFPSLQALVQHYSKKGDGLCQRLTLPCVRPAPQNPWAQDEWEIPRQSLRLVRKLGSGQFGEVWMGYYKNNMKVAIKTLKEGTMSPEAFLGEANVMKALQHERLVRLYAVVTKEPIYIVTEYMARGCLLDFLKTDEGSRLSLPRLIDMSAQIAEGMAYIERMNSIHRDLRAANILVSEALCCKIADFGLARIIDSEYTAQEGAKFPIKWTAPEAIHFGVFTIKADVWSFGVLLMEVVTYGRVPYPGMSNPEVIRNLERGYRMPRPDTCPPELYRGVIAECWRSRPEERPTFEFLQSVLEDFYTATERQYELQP

Turning to `CS(=O)(=O)CCNCc1ccc(-c2ccc3ncnc(Nc4ccc(OCc5cccc(F)c5)c(Cl)c4)c3c2)o1` [lapatinib], in [1], the “%-inhibition, BLK” value was 24%. Further, the “%-inhibition, CaMK2γ” value in [2] (1 µM) worked out at 1.73%. For the same compound, in test [3], the “%-inhibition of CRIK” value is recorded as 7%. The “%-inhibition of PBK” value in test [4] turned out to be 6%. Moreover, the “%-inhibition of EPHA7” value in test [5] is 6.56%. Besides, in test [6] (setting [10]), the “%-inhibition of MAPKAPK5” value was -2.68%. Besides, the “%-inhibition of EPHB4” value in [7] (kinase EPHB4, compound at 1 μM) is given as -0.865%. Further, the “%-inhibition of TRKB” value in test [8] (kinase TRKB, 1 μM) is on record as -10%. For the same compound, in [9], the “%-inhibition of MAPKAPK3” value was -3.64%.
Take `Cc1cn(-c2cc(NC(=O)c3ccc(C)c(Nc4nccc(-c5cccnc5)n4)c3)cc(C(F)(F)F)c2)cn1` [nilotinib]: the “%-inhibition, BLK” value in [1] was found to be 29%. In addition, the “%-inhibition, CaMK2γ” value in test [2] (kinase CaMK2γ, 1 μM compound) was -2.76%. The “%-inhibition of CRIK” value in test [3] is reported as -16%. In addition, in test [4], the “%-inhibition of PBK” value is on record as -8%. The “%-inhibition of EPHA7” value in test [5] stood at 19%. Besides, the “%-inhibition of MAPKAPK5” value in test [6] (setting [10]) was -4.26%. In addition, the “%-inhibition of EPHB4” value in test [7] (1 µM) came to 91%. Moreover, the “%-inhibition of TRKB” value in test [8] (1 µM) came out at 56%. Also, the “%-inhibition of MAPKAPK3” value in test [9] was 2%.
Take `CNC(=O)c1cc(Oc2ccc(NC(=O)Nc3ccc(Cl)c(C(F)(F)F)c3)c(F)c2)ccn1` [regorafenib]: the “%-inhibition, BLK” value in test [1] is given as 25%. The “%-inhibition, CaMK2γ” value in [2] (kinase CaMK2γ, 1 μM compound) was -13%. For the same compound, the “%-inhibition of CRIK” value in test [3] is reported as -18%. Moreover, in test [4], the “%-inhibition of PBK” value was -29%. For the same compound, the “%-inhibition of EPHA7” value in test [5] is 84%. The “%-inhibition of MAPKAPK5” value in [6] (setting [10]) is reported as -9%. Also, in test [7] (kinase EPHB4, compound at 1 μM), the “%-inhibition of EPHB4” value amounted to 80%. Also, the “%-inhibition of TRKB” value in test [8] (kinase TRKB, 1 μM) was determined as 74%. Also, the “%-inhibition of MAPKAPK3” value in test [9] was -15%.
Regarding `N#CC[C@H](C1CCCC1)n1cc(-c2ncnc3[nH]ccc23)cn1` [ruxolitinib], the “%-inhibition, BLK” value in [1] is -1%. In test [2] (kinase CaMK2γ, 1 μM compound), the “%-inhibition, CaMK2γ” value was 56%. For the same compound, the “%-inhibition of CRIK” value in [3] turned out to be 8%. For the same compound, the “%-inhibition of PBK” value in [4] is recorded as -19%. Moreover, the “%-inhibition of EPHA7” value in [5] was determined as 7.51%. In addition, in test [6] (1 µM), the “%-inhibition of MAPKAPK5” value is recorded as -4.52%. For the same compound, the “%-inhibition of EPHB4” value in test [7] (kinase EPHB4, compound at 1 μM) came to 0.569%. Besides, the “%-inhibition of TRKB” value in test [8] (kinase TRKB, 1 μM) is given as 88%. Besides, the “%-inhibition of MAPKAPK3” value in [9] was -13%.
In the case of `CO[C@H]1C[C@@H]2CC[C@@H](C)[C@@](O)(O2)C(=O)C(=O)N2CCCC[C@H]2C(=O)O[C@H]([C@H](C)C[C@@H]2CC[C@@H](OC(=O)C(C)(CO)CO)[C@H](OC)C2)CC(=O)[C@H](C)/C=C(\C)[C@@H](O)[C@@H](OC)C(=O)[C@H](C)C[C@H](C)/C=C/C=C/C=C/1C` [temsirolimus], the “%-inhibition, BLK” value in [1] is -12%. The “%-inhibition, CaMK2γ” value in test [2] (kinase CaMK2γ, 1 μM compound) is -14%. For the same compound, the “%-inhibition of CRIK” value in test [3] is on record as -15%. For the same compound, the “%-inhibition of PBK” value in test [4] was -9%. In addition, in test [5], the “%-inhibition of EPHA7” value is reported as -6%. In test [6] (setting [10]), the “%-inhibition of MAPKAPK5” value is reported as -9%. Moreover, the “%-inhibition of EPHB4” value in test [7] (kinase EPHB4, compound at 1 μM) is -9%. In addition, the “%-inhibition of TRKB” value in [8] (kinase TRKB, 1 μM) was found to be 1.08%. In addition, in [9], the “%-inhibition of MAPKAPK3” value is on record as -11%.
Take `CC(=O)Nc1cccc(-n2c(=O)n(C3CC3)c(=O)c3c(Nc4ccc(I)cc4F)n(C)c(=O)c(C)c32)c1` [trametinib]: the “%-inhibition, BLK” value in test [1] was -2.79%. Besides, the “%-inhibition, CaMK2γ” value in test [2] (kinase CaMK2γ, 1 μM compound) worked out at 7%. Further, the “%-inhibition of CRIK” value in test [3] was -4.25%. In addition, the “%-inhibition of PBK” value in [4] is -3.79%. Moreover, the “%-inhibition of EPHA7” value in test [5] is reported as -5%. The “%-inhibition of MAPKAPK5” value in [6] (setting [10]) is reported as -2.22%. Moreover, the “%-inhibition of EPHB4” value in [7] (kinase EPHB4, compound at 1 μM) is listed as -3.38%. Besides, the “%-inhibition of TRKB” value in test [8] (kinase TRKB, 1 μM) is -3.4%. Also, in test [9], the “%-inhibition of MAPKAPK3” value is reported as -9%.
As for `CCCS(=O)(=O)Nc1ccc(F)c(C(=O)c2c[nH]c3ncc(-c4ccc(Cl)cc4)cc23)c1F` [vemurafenib], the “%-inhibition, BLK” value in test [1] was 52%. Moreover, the “%-inhibition, CaMK2γ” value in test [2] (kinase CaMK2γ, 1 μM compound) was -10%. Besides, the “%-inhibition of CRIK” value in [3] is recorded as -6%. In addition, the “%-inhibition of PBK” value in test [4] was -12%. The “%-inhibition of EPHA7” value in test [5] is listed as -0.639%. Also, the “%-inhibition of MAPKAPK5” value in test [6] (setting [10]) was determined as 12%. Further, in [7] (kinase EPHB4, compound at 1 μM), the “%-inhibition of EPHB4” value is given as 3.73%. In addition, the “%-inhibition of TRKB” value in test [8] (kinase TRKB, 1 μM) was determined as 11%. Besides, the “%-inhibition of MAPKAPK3” value in test [9] came to 12%.
